The source of these data is EP4755886A1 (Chengdu Chipscreen Pharmaceutical Ltd., priority 2023, dated 2025).

One data set concerns MTAP^-/- HCT-116 cells. Kind of data set: Cell proliferation (MTS), MTAP-/- HCT-116. It is filed as cell-based, human. The conditions noted are these: for IC50: Homo sapiens, 240 h, MTAP-/- HCT-116, 10 days with compound, MTS reading, read-out: IC50 HCT116 MTAP-/-; for Selectivity: HCT116 WT IC50 relative to HCT116 MTAP-/- IC50. In outline: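 MTAP-/- (CRISPR/Cas9 biallelic knockout) or wild-type HCT-116 cells seeded at 100 cells/well, treated next day with 8-point 3-fold dilutions (top 20 µM) for 10 days at 37 °C, 5% CO2. Viability read by MTS; IC50 from four-parameter logistic fit of inhibition rate vs log concentration.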

The nature of data set [1]: Human liver microsome stability. Type of data set: in vitro ADME. The conditions noted are these: pH 7.4; human liver microsomes 0.5 mg/mL, compound 1 µM, NADPH 1 mM, 37 °C. As for the experimental part:
Experimental materials: human liver microsomes (purchased from BIOIVT);
PBS: 0.1 M KH2PO4 and K2HPO4 buffers, pH 7.4.
MgCl2: a certain amount of MgCl2 was weighed out and prepared into a 16 mM MgCl2 solution with PBS.
NADPH (Chinese name: reduced nicotinamide adenine dinucleotide phosphate, purchased from Sigma, Cat. No.: 481973-500 mg): a certain amount of NADPH was weighed out and a 4 mM solution of NADPH was prepared with a 16 mM MgCl2 solution, and the final incubation concentration was 1 mM.
Compounds: 4 µM solutions of the test compounds and positive compounds were prepared with PBS, and the final incubation concentration was 1 µM.
Liver microsomes (purchased from BIOIVT, Cat. No.: X008070): the liver microsomes were diluted to […] with PBS, and the final incubation concentration was 0.5 mg/mL.
The prepared test compound or positive compound was added to a test tube, and then the prepared NADPH was added. The mixture was mixed well. The mixture was pre-incubated in a thermostat incubator at 220 rpm at 37 °C for 5 min, and the prepared liver microsomes were added to start the reaction. All steps were performed in replicate wells. At 0 min, 15 min, 30 min, 45 min, and 60 min, a certain volume of glacial acetonitrile solution containing an internal standard was added to the corresponding tube to precipitate the protein. The mixture was vortexed for 5 min with shaking, and then centrifuged at 4000 rpm for 10 min. […] The samples were analyzed by LC-MS/MS.
The concentrations (peak area ratios) of the example compounds were determined by LC-MS/MS. Rate constants were obtained by plotting "Ln (residual amount of compound %)" versus "incubation time" in Excel, thereby calculating the half-lives and intrinsic clearances of the drugs and providing a basis for the prediction of the in-vivo clearance.
[formula] CLH = CLint × fu × Qh /(CLint×fu+Qh) [formula]
Stability in human liver microsomes
For orientation: Microsomes from liver hold many membrane-bound enzymes, among them those of drug oxidation.

Another data set has as its target T1, hERG (Homo sapiens, UniProt Q12809).
T1 construct: purchased ThermoFisher Scientific PV5365
Briefly: hERG test (Predictor hERG Fluorescence Polarization Assay Kit). The conditions noted are these: for inhibition at 3.5 h, 10 µM: 10 µM test substance, three duplicate wells; for IC50: only 10 µM tested. It is filed as binding. In outline: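 Fluorescence polarization tracer displacement using hERG membranes and Tracer Red, test compound at 10 µM final, E-4031 as positive control, triplicate wells. Incubated 3.5 h at 25 °C in the dark; mP read (G factor 2.14) and percent inhibition calculated.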

The mark [2] stands for this setting: human, probe Predictor hERG Tracer Red.

T1 sequence (Q12809 whole entry): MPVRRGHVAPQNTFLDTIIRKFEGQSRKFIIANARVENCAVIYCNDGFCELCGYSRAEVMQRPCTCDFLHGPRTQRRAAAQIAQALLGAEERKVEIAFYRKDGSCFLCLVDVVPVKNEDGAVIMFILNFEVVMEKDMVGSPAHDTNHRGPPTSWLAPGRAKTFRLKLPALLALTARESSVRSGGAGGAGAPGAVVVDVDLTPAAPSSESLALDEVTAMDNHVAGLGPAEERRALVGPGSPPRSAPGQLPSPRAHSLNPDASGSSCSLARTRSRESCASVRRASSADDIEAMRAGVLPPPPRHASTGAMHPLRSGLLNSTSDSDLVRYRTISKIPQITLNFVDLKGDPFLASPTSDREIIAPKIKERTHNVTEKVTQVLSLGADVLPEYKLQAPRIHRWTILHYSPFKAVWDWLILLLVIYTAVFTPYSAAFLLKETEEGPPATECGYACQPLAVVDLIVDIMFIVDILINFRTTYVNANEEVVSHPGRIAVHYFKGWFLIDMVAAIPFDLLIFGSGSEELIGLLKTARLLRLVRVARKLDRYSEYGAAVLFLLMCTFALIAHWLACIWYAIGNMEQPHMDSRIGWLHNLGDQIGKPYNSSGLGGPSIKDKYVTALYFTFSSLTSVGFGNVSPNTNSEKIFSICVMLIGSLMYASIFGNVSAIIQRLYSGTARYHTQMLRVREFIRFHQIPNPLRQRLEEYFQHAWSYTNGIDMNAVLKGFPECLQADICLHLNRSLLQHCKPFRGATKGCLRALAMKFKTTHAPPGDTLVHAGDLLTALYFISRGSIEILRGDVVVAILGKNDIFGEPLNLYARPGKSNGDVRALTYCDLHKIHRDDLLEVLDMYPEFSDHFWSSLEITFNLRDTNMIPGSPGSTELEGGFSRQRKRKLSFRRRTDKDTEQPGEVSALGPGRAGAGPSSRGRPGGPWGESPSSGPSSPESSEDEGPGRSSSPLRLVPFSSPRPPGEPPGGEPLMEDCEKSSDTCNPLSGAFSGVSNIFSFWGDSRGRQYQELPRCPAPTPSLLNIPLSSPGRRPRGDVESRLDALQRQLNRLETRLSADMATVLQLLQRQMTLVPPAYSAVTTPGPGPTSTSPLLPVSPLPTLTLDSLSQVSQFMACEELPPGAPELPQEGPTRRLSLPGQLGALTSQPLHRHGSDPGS

With `CN(C(=O)c1cc2c(cc1F)nc(N)c1cnn(C)c12)[C@@H]1COc2cc(C#Cc3cnn(C)c3)ccc21` [Compound 5A, (S)-4-amino-7-fluoro-N,1-dimethyl-N-(6-((1-methyl-1H-pyrazol-4-yl)ethynyl)-2,3-dihydrobenzofuran-3-yl)-1H-pyrazolo[4,3-c]quinoline-8-carboxamide], the results for the IC50 in the data set on MTAP^-/- HCT-116 cells and at hERG were 1.7 nM and above 10000 nM, respectively. This compound returned a half-life at 1 µM in data set [1] of 1.11 h. Also, on hERG (herg membrane fluorescence polarization), the inhibition at 3.5 h, 10 µM is 27.7%.

`Cc1nn(C)cc1C#Cc1ccc2c(c1)OC[C@H]2N(C)C(=O)c1cc2c3c(c(N)nc2cc1Cl)COC3` [Compound 50A, (S)-4-amino-7-chloro-N-(6-((1,3-dimethyl-1H-pyrazol-4-yl)ethynyl)-2,3-dihydrobenzofuran-3-yl)-N-methyl-1,3-dihydrofuro[3,4-c]quinoline-8-carboxamide]: in the data set on MTAP^-/- HCT-116 cells, the Selectivity turned out to be 180 and the IC50 was found to be 2.4 nM. The half-life at 1 µM in data set [1] was 0.832 h. Also, at hERG (setting [2]), the inhibition at 3.5 h, 10 µM is 22.4%. The IC50 at hERG was above 10000 nM.

`CN(C(=O)c1cc2c3c(c(N)nc2cc1Cl)COC3)[C@@H]1COc2cc(C#Cc3cnn(C4CC4)c3)ccc21` [Compound 43A, (S)-4-amino-7-chloro-N-(6-((1-cyclopropyl-1H-pyrazol-4-yl)ethynyl)-2,3-dihydrobenzofuran-3-yl)-N-methyl-1,3-dihydrofuro[3,4-c]quinoline-8-carboxamide]: in the data set with MTAP^-/- HCT-116 cells, the Selectivity was determined as 170. For the same compound, the IC50 with MTAP^-/- HCT-116 cells was 3.8 nM; on hERG it was above 10000 nM. Moreover, the half-life at 1 µM in data set [1] amounted to 2.03 h. In addition, the inhibition at 3.5 h, 10 µM on hERG (setting [2]) was 30.3 ± 29.9%.

By half-life is commonly meant the time in which the quantity being followed falls by half. Read a high half-life as slow decline. One may read the inhibition as the relative decrease from the control value, in per cent.
